tested on: p-IKKa levels in L363 (NIK translocated multiple myeloma) cells; assay: Assay 2: Effect of compounds on p-IKKa levels in L363 (NIK translocated multiple myeloma) cells; format: cell-based; conditions: Homo sapiens, L-363, 6 h, read-out: Assay 2 IC50 (nM), p-IKKa (Ser 176/180) in BAFF stimulated L363 cells with MG132, 6 h; average if tested more than once
Summary of the method: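 Read-out is p-IKKa Ser176/180 by AlphaLISA SureFire in lysates. Cells were BAFF-primed (250 ng/ml) overnight or left unstimulated, then exposed 6 h at 37 °C to compound with MG132 (10 μM), 0.3% DMSO. IC50 from sigmoidal curve fit, normalized between stimulated and unstimulated controls.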

| Compound | IC50 [nM] |
| --- | --- |
| CN1CC[C@@](O)(c2cc(-c3cccc(-c4ccnc(Nc5ccnc(N6CCOCC6)c5)n4)n3)no2)C1=O [Example 320] | < 50 |
| CN1CC[C@@](O)(c2cc(-c3cccc(-c4ccnc(Nc5nnnn5C)n4)n3)no2)C1=O [Example 321, (R)-3-Hydroxy-1-methyl-3-(3-(6-(2-((1-methyl-1H-tetrazol-5-yl)amino)pyrimidin-4-yl)pyridin-2-yl)isoxazol-5-yl)pyrrolidin-2-one] | > 500 |
| CN1CC[C@@](O)(c2cc(-c3cccc(-c4ccnc(Nc5ccc(F)cn5)n4)n3)no2)C1=O [Example 254, (R)-3-(3-(6-(2-((5-Fluoropyridin-2-yl)amino)pyrimidin-4-yl)pyridin-2-yl)isoxazol-5-yl)-3-hydroxy-1-methylpyrrolidin-2-one] | 50 to 500 |
| Cc1ncccc1Nc1nccc(-c2cccc(-c3cc([C@]4(O)CCN(C)C4=O)on3)c2)n1 [Example 24, (R)-3-Hydroxy-1-methyl-3-(3-(3-(2-((2-methylpyridin-3-yl)amino)pyrimidin-4-yl)phenyl)isoxazol-5-yl)pyrrolidin-2-one] | 50 to 500 |
| Cc1cc(-c2cc([C@]3(O)CCN(C)C3=O)on2)nc(-c2ccnc(Nc3cnn(C)c3)n2)c1 [Example 99, (R)-3-Hydroxy-1-methyl-3-(3-(4-methyl-6-(2-((1-methyl-1H-pyrazol-4-yl)amino)pyrimidin-4-yl)pyridin-2-yl)isoxazol-5-yl)pyrrolidin-2-one] | < 50 |
| CN1CC[C@@](O)(c2cc(-c3cccc(-c4ccnc(Nc5ccn(C6CC6)n5)n4)n3)no2)C1=O [Example 212, (R)-3-(3-(6-(2-((1-Cyclopropyl-1H-pyrazol-3-yl)amino)pyrimidin-4-yl)pyridin-2-yl)isoxazol-5-yl)-3-hydroxy-1-methylpyrrolidin-2-one] | < 50 |
| Cc1ncnn1-c1ccc(Nc2nccc(-c3cccc(-c4cc([C@]5(O)CCN(C)C5=O)on4)n3)n2)nc1 [Example 131, (R)-3-Hydroxy-1-methyl-3-(3-(6-(2-((5-(5-methyl-1H-1,2,4-triazol-1-yl)pyridin-2-yl)amino)pyrimidin-4-yl)pyridin-2-yl)isoxazol-5-yl)pyrrolidin-2-one] | 50 to 500 |
| CN1CC[C@@](O)(c2cc(-c3cccc(-c4ccnc(Nc5cc6n(n5)CC5(CC5)C6)n4)n3)no2)C1=O [Example 300, (R)-3-(3-(6-(2-((4′H,6′H-Spiro[cyclopropane-1,5′-pyrrolo[1,2-b]pyrazol]-2′-yl)amino)pyrimidin-4-yl)pyridin-2-yl)isoxazol-5-yl)-3-hydroxy-1-methylpyrrolidin-2-one] | < 50 |
| CN1CC[C@@](O)(c2cc(-c3cccc(-c4ccnc(Nc5ccn(C)n5)n4)n3)no2)C1=O [Example 47, (R)-3-Hydroxy-1-methyl-3-(3-(6-(2-((1-methyl-1H-pyrazol-3-yl)amino)pyrimidin-4-yl)pyridin-2-yl)isoxazol-5-yl)pyrrolidin-2-one] | < 50 |
| COc1cc(-c2ccnc(Nc3cnn(C)c3)n2)nc(-n2cc([C@]3(O)CCN(C)C3=O)nn2)c1 [Example 136, (R)-3-Hydroxy-3-(1-(4-methoxy-6-(2-((1-methyl-1H-pyrazol-4-yl)amino)pyrimidin-4-yl)pyridin-2-yl)-1H-1,2,3-triazol-4-yl)-1-methylpyrrolidin-2-one] | < 50 |
| CCn1ccc(Nc2nccc(-c3cccc(-n4cc([C@]5(O)CCN(C)C5=O)nn4)n3)n2)n1 [Example 253, (3R)-3-[1-[6-[2-[(1-Ethylpyrazol-3-yl)amino]pyrimidin-4-yl]-2-pyridyl]triazol-4-yl]-3-hydroxy-1-methyl-pyrrolidin-2-one] | < 50 |
| C[C@@H](CC(F)(F)F)Nc1nccc(-c2cccc(-c3cc([C@]4(O)CCN(C)C4=O)on3)n2)n1 (single isomer, unassigned) [Example 437, (R)-3-Hydroxy-1-methyl-3-(3-(6-(2-(((*S)-4,4,4-trifluorobutan-2-yl)amino)pyrimidin-4-yl)pyridin-2-yl)isoxazol-5-yl)pyrrolidin-2-one] | 50 to 500 |
| CN1CC[C@@](O)(c2cc(-c3cccc(-c4ccnc(Nc5nccn5C)n4)n3)no2)C1=O [Example 398, (R)-3-Hydroxy-1-methyl-3-(3-(6-(2-((1-methyl-1H-imidazol-2-yl)amino)pyrimidin-4-yl)pyridin-2-yl)isoxazol-5-yl)pyrrolidin-2-one] | > 500 |
| C[C@@H](Nc1nccc(-c2cccc(-n3cc([C@]4(O)CCN(C)C4=O)nn3)n2)n1)c1cnn(C)c1 (single isomer, unassigned) [Example 118] | > 500 |
| Cc1cn(C2CC(O)C2)nc1Nc1nccc(-c2cccc(-c3cc([C@]4(O)CCN(C)C4=O)on3)n2)n1 (stereo partly drawn) [Example 50, (R)-3-Hydroxy-3-(3-(6-(2-((1-(3-hydroxycyclobutyl)-4-methyl-1H-pyrazol-3-yl)amino)pyrimidin-4-yl)pyridin-2-yl)isoxazol-5-yl)-1-methylpyrrolidin-2-one] | < 50 |
| Cc1ncccc1Nc1nccc(-c2cccc(-n3cc([C@]4(O)CCN(C)C4=O)nn3)n2)n1 [Example 190, (R)-3-Hydroxy-1-methyl-3-(1-(6-(2-((2-methylpyridin-3-yl)amino)pyrimidin-4-yl)pyridin-2-yl)-1H-1,2,3-triazol-4-yl)pyrrolidin-2-one] | < 50 |
| Cc1nn(CC(F)F)cc1Nc1nccc(-c2cccc(-n3cc([C@]4(O)CCN(C)C4=O)nn3)n2)n1 [Example 144, (R)-3-(1-(6-(2-((1-(2,2-Difluoroethyl)-3-methyl-1H-pyrazol-4-yl)amino)pyrimidin-4-yl)pyridin-2-yl)-1H-1,2,3-triazol-4-yl)-3-hydroxy-1-methylpyrrolidin-2-one] | < 50 |
| CN1CC[C@@](O)(c2cc(-c3cccc(-c4ccnc(Nc5ncn6ccnc6n5)n4)n3)no2)C1=O [Example 315, (R)-3-Hydroxy-3-(3-(6-(2-(imidazo[1,2-a][1,3,5]triazin-2-ylamino)pyrimidin-4-yl)pyridin-2-yl)isoxazol-5-yl)-1-methylpyrrolidin-2-one] | > 500 |
| CN1CC(F)(F)[C@@](O)(c2cc(-c3cccc(-c4ccnc(Nc5cnn6c5CCCC6)n4)n3)no2)C1=O [Example 239, (R)-4,4-Difluoro-3-hydroxy-1-methyl-3-(3-(6-(2-((4,5,6,7-tetrahydropyrazolo[1,5-a]pyridin-3-yl)amino)pyrimidin-4-yl)pyridin-2-yl)isoxazol-5-yl)pyrrolidin-2-one] | 50 to 500 |
| CN1CC[C@@](O)(c2cc(-c3cccc(-c4ccnc(Nc5cn(C)nc5N)n4)c3)no2)C1=O [Example 415, (R)-3-(3-(3-(2-((3-Amino-1-methyl-1H-pyrazol-4-yl)amino)pyrimidin-4-yl)phenyl)isoxazol-5-yl)-3-hydroxy-1-methylpyrrolidin-2-one] | > 500 |
| CN1CC[C@@](O)(c2cc(-c3cccc(-c4ccnc(NC5CCC5)n4)n3)no2)C1=O [Example 453, (R)-3-(3-(6-(2-(Cyclobutylamino)pyrimidin-4-yl)pyridin-2-yl)isoxazol-5-yl)-3-hydroxy-1-methylpyrrolidin-2-one] | 50 to 500 |
| Cc1cc(Nc2nccc(-c3cccc(-c4cc([C@]5(O)CCN(C)C5=O)on4)n3)n2)c(F)cn1 [Example 293, (R)-3-(3-(6-(2-((5-Fluoro-2-methylpyridin-4-yl)amino)pyrimidin-4-yl)pyridin-2-yl)isoxazol-5-yl)-3-hydroxy-1-methylpyrrolidin-2-one] | < 50 |

From US20250282768A1 (Janssen Pharmaceutica NV, priority 2022, published 2025)
